Assays:
Assay type in all cases: cell-based
NAMPT = NAMPT expression by FACS in transfected Nalm-6 cells
Protocol: One to two million NALM-6 transfected cells were collected 48 hours after transfection and fixed using 500 μl fixation and permeabilization buffer prior to immunofluorescent staining of intracellular proteins (e.g., BD Phosflow™ Fix Buffer I (BD Biosciences, San Jose, Calif., USA)) for 15 minutes. Then, pellets were washed twice using PBS and resuspended in 500 μl methanol. Samples were incubated for 2 hours in −20° C. For staining, pellets were washed with PBS and resuspended in 10 ml BD™ Cell Wash buffer (BD Biosciences, San Jose, Calif., USA) containing 2% FCS. The cells were stained for NAMPT using anti-NAMPT antibody (Ab) (1:1000) (R&D Systems®, MN, USA). […] The cells were sorted on flow cytometer (Calibur™ flow cytometer, Becton Dickinson, Le Pont-De-Claix, France) and analyzed using BD CellQuest™ Pro software.
Using open access software programs (TargetScan and miRanda), NAMPT was identified as a predicted target of miR-451. […] NAMPT expression was measured by FACS analysis using a specific NAMPT antibody.
In order to assess a possible association or correlation between miR-451 expression levels and sensitivity to in-vivo treatment of ALL with a NAMPT inhibitor, the effect of the NAMPT inhibitor FK866 was assessed in the presence of elevated levels or lowered levels of miR-451 in ALL xenograft mouse model. […] Tumors volume was measured daily.

Nalm-6 cells = assay: XTT cell viability assay in Nalm-6 cells; conditions: NALM-6 cells, transient expression
Protocol: Cell viability assay was performed using the Cell Proliferation Kit comprising the second-generation tetrazolium dye, XTT. Viable cells with active metabolism convert XTT into an orange colored reduction product, whereas dead cells lose the ability to reduce XTT, thus, color formation serves as a useful and convenient marker of only the viable cells.
The XTT kit was applied to NALM6 transfected cells according to the manufacturer's protocol (Biological Industries, Kibbutz Beit Haemek, Israel). Cells were incubated for 3 hours with the XTT reagent and quantity of reduced XTT (directly proportional to the number of viable cells) was assessed by recording changes in absorbance as measured on a microplate reader at 450-500 nm optical density (OD).
To measure the effect of NAD^+ depletion following FK866 treatment of Nalm-6 cells, apoptosis and viability were measured as described in Materials and Methods. Nalm-6 cells were treated for 48 hours with 1 nM FK866, and then apoptosis was measured using FACS.

ADAM10 = assay: Western blot of ADAM10 in transfected NALM-6 cells; conditions: NALM-6 transient
Excerpt: (§1) Protein was extracted from NALM-6 cell line using Qproteome™ lysis buffer (Qiagen, Hilden, Germany). The membrane was then probed with one or more of the following antibodies: anti-disintegrin and metalloproteinase domain-containing protein 10 (ADAM10) (1:1000) (Abcam; Cambridge, UK) (see Example 9); anti-chemokine C-X-C motif 16 (CXCL16) (1:1000); anti-NAMPT (1:1000); and anti-GAPDH (1:5000) (Santa Crus Biotechnology, Santa Crus, Calif., USA) (see Examples 5 and 9). The secondary antibodies were goat anti-mouse and goat anti-rabbit (1:10,000) (Sigma®, Saint Louis, Mo., USA), for each antigen according to the manufacturer's instructions. […]
(§2) Intensity of the protein band was measured using an in-house program. […]
(§3) Possible miR-451 targets were evaluated using several open access software programs (e.g., Targetscan, PicTar, miRanda, miRDB). […] In the first screening, the suppression of ADAM10, CXCL16 and NAMPT protein level was analyzed in NALM-6 cells transiently expressing miR-451 mimic (SEQ ID NO: 2) and in cells transiently expressing scrambled-miR (universal sequence; negative control) by Western blot as described in Materials and Methods. […]

CXCL16 = assay: Western blot of CXCL16 in transfected NALM-6 cells; conditions: NALM-6 transient
Excerpt: as §1, §2, §3

“miR-451 mimic: a dsmiR-451 designed to copy or mimic the functionality of mature endogenous miR-451 upon transfection (AAACCGUUACCAUUACUGAGUU; double-stranded mimic, further chemistry not given here; listed as Homo sapiens)” was tested, and the “NAMPT protein expression decreased by” value (NAMPT) was 46%, the effect on viability (Nalm-6 cells) was “No effect” and the “ADAM10 protein level compared to scrambled-miR” value (ADAM10) was “only NAMPT protein expression levels were reduced”. For the same substance, the “CXCL16 protein level compared to scrambled-miR” value (CXCL16) was “only NAMPT protein expression levels were reduced”.

Reference: patent publication US20190167711A1, “METHODS FOR DIAGNOSIS AND TREATMENT OF ACUTE LYMPHOBLASTIC LEUKEMIA” (MOR RESEARCH APPLICATIONS LTD., priority 2014, published 2019)
